Laboratory results taken from EPA's ToxValDB 9.5 (doi:10.2903/j.efsa.2009.343r).

Tests used:
Anas platyrhynchos = details: oral, mortality
Apis mellifera = details: acute; duration: 48 hours; oral; unspecified; mortality
Canidae = details: subchronic; duration: 90 days; oral; Dog Other; histopathology: nonneoplastic
Colinus virginianus = details: for NOEL: reproduction developmental
Daphnia magna = details: chronic/long-term; duration: 21 days
Oncorhynchus mykiss = details: acute; duration: 96 hours; mortality
Oryctolagus sp. = details: reproduction developmental; body weight
Pimephales promelas = details: chronic/long-term; duration: 36 days; development
Tagia sp. = details: acute; duration: 14 days; mortality
Typhlodromus pyri [1] = details: not reported; F; reproduction
Typhlodromus pyri [2] = assay: LR50; higher = less toxic; details: not reported; mortality

SMILES: COc1cnc(OC)n2nc(NS(=O)(=O)c3c(OCC(F)F)cccc3C(F)(F)F)nc12 [Penoxsulam]
- LD50 (Anas platyrhynchos; acute, unspecified): > 2000 mg/kg-day
- LC50 (Anas platyrhynchos; short-term, duration: 8 days, feed): > 1120 mg/kg-day
- LD50 (Apis mellifera): > 100 µg/piece
- NOAEL (Canidae): 18 mg/kg-day
- LC50 (Colinus virginianus; acute, duration: 8 days, oral, diet, mortality): > 804 mg/kg-day
- NOEL (Colinus virginianus; F): 80.1 mg/kg-day
- NOEL (Colinus virginianus; M): 82.5 mg/kg-day
- NOEC (Daphnia magna): 3.33 mg/L
- LC50 (Oncorhynchus mykiss): > 100 µg/mL
- NOAEL (Oryctolagus sp.): 25 mg/kg-day
- NOEC (Pimephales promelas): 10 mg/L
- LD50 (Rattus norvegicus; acute, oral, mortality): > 5000 mg/kg-day
- NOAEL (Rattus norvegicus; chronic, duration: 2 years, histopathology: nonneoplastic): 5 mg/kg-day
- NOAEL (Rattus norvegicus; reproduction developmental, body weight): 100 mg/kg-day
- NOAEL (Rattus norvegicus; reproduction developmental, reproduction): 300 mg/kg-day
- LC50 (Tagia sp.): > 1000 mg/kg
- LEL (Typhlodromus pyri [1]): 4 g/ha
- LR50 (Typhlodromus pyri [2]): 7.46 g/ha
